Measurements reported in PubChem BioAssay AID504703 (Southern Research Specialized Biocontainment Screening …, 2011).
Values joined by “and” are separate entries in the source; they are usually repeats but may differ in a detail not shown here. Equal entries are not always repeated. Active and inactive are the calls of the source. How the calls were made is not given here.

System: M. tuberculosis H37Rv growth inhibition with meropenem
Experiment: M. tuberculosis growth inhibition, H37Rv, set 2, dose response (AID 504703);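 further: growth ran 7 days at 37 °C then overnight with Alamar Blue before reading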
[1] = M. tuberculosis H37Rv growth inhibition, measured here: IC50 without meropenem
[2] = M. tuberculosis H37Rv growth inhibition, measured here: IC90 without meropenem
[3] = measured here: IC90 with meropenem

| Structure (SMILES) | IC50 [1] | IC90 [2] | IC90 [3] | IC50 |
| --- | --- | --- | --- | --- |
| N/C(=N\c1nc2ccccc2o1)NC(=O)c1ccccc1F | > 25 µM | > 25 µM |  |  |
| O=C(Nc1nc2ccccc2[nH]1)c1cc2cc(Br)ccc2o1 | > 25 µM | > 25 µM |  |  |
| Cc1cc2cc(Cl)ccc2[nH]1 | > 25 µM | > 25 µM |  |  |
| Cc1ccccc1OCC(=O)Nc1ncccn1 | > 25 µM | > 25 µM |  |  |
| COC(=O)c1c(C)[nH]c2ccc(F)cc12 | > 25 µM | > 25 µM |  |  |
| Cc1c(OCc2ccc(C(=O)O)cc2)ccc2c(-c3ccccc3)cc(=O)oc12 | > 25 µM | > 25 µM | > 25 µM |  |
| COc1ccc2oc(C(=O)Nc3nc4ccccc4[nH]3)c(C)c2c1 |  | > 25 µM | > 25 µM | 10.5 µM (inactive) |
| CN(NC(=O)c1c(Cl)cccc1Cl)c1cccc(Cl)n1 | > 25 µM | > 25 µM | > 25 µM | 15.5 µM (inactive) |
| CCOC(=O)COc1nc(-c2ccc(Cl)cc2)cc(-c2ccco2)c1C#N | > 25 µM | > 25 µM | > 25 µM |  |
| Cc1ccc(OCC(=O)Nc2ccc3c4c(cccc24)CC3)c(C)c1 | > 25 µM | > 25 µM | > 25 µM |  |
| COC(=O)c1sc(-c2ccc(C(C)(C)C)cc2)cc1NC(=O)CCC(=O)O | 13.5 µM and 9.45 µM | > 25 µM | > 25 µM | 7.32 µM (inactive) |
| CCCN1CC(O)=C(c2nc3ccccc3s2)C1=N | > 25 µM | > 25 µM |  |  |
| O=C(COc1cccc2ccccc12)Nc1nc2ccccc2s1 | > 25 µM | > 25 µM |  |  |
| N/C(=N\c1nc2ccccc2o1)NC(=O)C1CC1 | > 25 µM | > 25 µM |  |  |
| N/C(=N\c1nc2ccccc2o1)NC(=O)c1ccccc1 | > 25 µM | > 25 µM |  |  |
| CCOc1ccc2nc(NC(=O)COc3ccc(OC)cc3)sc2c1 | > 25 µM | > 25 µM |  |  |
| CCOc1ccc2c(c1)c(C(C)=O)c(C)n2Cc1ccco1 | > 25 µM | > 25 µM |  |  |
| CCOc1ccc2c(ccn2-c2ccccc2)c1 | > 25 µM | > 25 µM |  |  |
| O=C(COC(=O)C1=COCCO1)Nc1ccc2c(c1)OCO2 | > 25 µM | > 25 µM | > 25 µM |  |
| CCOc1ccc2c(c1)c(C(C)=O)c(C)n2-c1cccc(Cl)c1 | > 25 µM | > 25 µM | > 25 µM | 10.5 µM (inactive) |
| O=C(Cc1csc(-c2ccccc2F)n1)Nc1nc2ccccc2[nH]1 | > 25 µM | > 25 µM |  |  |
| Cc1ccc(OCC(=O)Nc2ccc(Cl)cc2)c(C)c1 | > 25 µM | > 25 µM |  |  |
| Cc1ccc(OCC(=O)Nc2cccc3c(NC(=O)COc4ccc(C)cc4C)cccc23)c(C)c1 | > 25 µM | > 25 µM |  |  |
| O=C(CCS(=O)(=O)c1ccc(F)cc1)Nc1nnc(-c2cccs2)o1 | > 25 µM | > 25 µM | > 25 µM | > 18.8 µM (inactive) and 22.4 µM (inactive) |
